This is an account of results in PMC2219390 (The Journal of General Physiology, 1996).

The subject of data set [1] is rat brain voltage-dependent sodium channels (BTX-modified). It counts as biochemical.
Data set [2] can be described thus: Fraction of uncharged molecules at pH 7.4. The class given is physicochemical.
Where [3] appears, read: Fig. 5 A, one channel, +60 mV, low-Kd period.

Structures are written as SMILES. “And” between values parts separate entries of the source, which are not always exact repeats. Equal entries are not always repeated. Where two headings read alike, the source gives them in different places.

Usually koff stands for a measure of how fast the partners let go of each other. A higher koff goes with fast dissociation.

Consider `CC[N+](CC)(CC)CC(=O)Nc1c(C)cccc1C` [QX-314, lidocaine N-ethyl], for which, in data set [1] (0.4 mM QX-314, +60 mV, six channels, 3.66 h), the “Measured FO2 (fractional time in the high affinity conformation)” value came out at 0.655. Further, in data set [1] (3.0 mM QX-314, +60 mV, two channels, 4.32 h), the “Measured FO2 (fractional time in the high affinity conformation)” value was determined as 0.983. Further, the “block of the small subconductance channel state (~6 pS)” value in data set [1] (30 mM lidocaine (0.2 M NaCl) or 0.4 mM QX-314 (0.5 M NaCl), Fig. 7) is listed as “did not block”. In addition, in data set [1] (setting [3]), the “koff (amplitude distribution, beta function fit)” value came to 238 s⁻¹ and the “kon (amplitude distribution, beta function fit)” value amounted to 896000 M⁻¹ s⁻¹. The koff in data set [1] (Table I A, symmetrical 0.5 M NaCl, 160mV as printed, channels a, b, c) was 238 s⁻¹ and 253 s⁻¹ and 291 s⁻¹ and 256 s⁻¹. Moreover, the “kon rate relative to lidocaine” value in data set [1] (low-Kd period, Table I part B) is “about six times lower”.

As for `CCN(CC)CC(=O)Nc1c(C)cccc1C` [lidocaine], in data set [2], the uncharged molecules is recorded as ~ 14%.
